# Measurements from US12276657B2, “Detection of PAR in the CSF of patients with Parkinson's disease” (The Johns Hopkins University, priority 2017, dated 2025).
# Residues, ends and D or L forms follow the SMILES beside them. *: point of attachment. Cbz = O=C(OCc1ccccc1)*; CH2F = FC*
# Columns and labels:
# [1] = tested on: primary cortical neurons; assay: Cell death of primary cortical neurons, Hoechst and propidium iodide staining; type: cell-based, mouse; details: for α-syn PFF toxicity (cell death, FIGS. 47 and 48): pre-treated 1 h: ABT-888 10 μM, Z-VAD 20 μM, Nec-1 20 μM, 3-MA 500 μM, α-syn PFF 14 days; for α-syn PFF-mediated cell death (PI staining): inhibitor pre-incubated 1 h (ABT-888 10 μM, AG-014699 1 μM, BMN 673 10 μM), α-syn PFF 5 μg/ml 14 days
# Protocol: SH-SYSY cells (ATCC) were cultured in DMEM containing 10% fetal bovine serum and penicillin/streptomycin at 37° C. under 5% CO2. The cells were transfected using PolyFect reagent (Qiagen) according to the manufacturer's instructions. Primary cortical neurons from WT or PARP1 KO embryos were prepared. Briefly, the primary cortical neurons were cultured at embryonic day 16 in neurobasal media supplemented with B-27, 0.5 mM L-glutamine, penicillin and streptomycin (Invitrogen, Grand Island, NY). The neurons were replaced to fresh medium every 3-4 days. ABT-888 (10 μM), AG-014699 (1 μM), BMN 673 (10 μM), Z-VAD (20 μM), Nec-1 (20 μM) or 3-MA (500 μM) was pretreated to neurons 1 h before α-syn PFF treatment. α-syn PFF were added at 7 days in vitro (DIV) and further incubated for indicated times followed by cell death assay or biochemical experiments. Primary neurons were infected with AAV2-control sgRNA or AAV2-PARP1 sgRNA (ViGene Bioscineces, Rockville, MD, USA), and AAV-α-syn WT or AAV-α-syn A53T at DIV 4-5.
# Percent of cell death was determined by staining with 7 μM Hoechst 33342 and 2 μM propidium iodide (PI) (Invitrogen, Carlsbas, CA). Images were taken and counted by Zeiss microscope equipped with automated computer assisted software (Axiovision 4.6, Carl Zeiss, Dublin, CA, USA).
# [2] = tested on: WT mice; assay: Intrastriatal injection of PAR-α-syn PFF, α-syn PFF or PAR in WT mice; type: in vivo, mouse
# Description: There is no significant loss of DA neuron contralateral to the injection side at any time point (FIGS. 81 and 82).
# [3] = tested on: SH-SYSY cells; assay: α-syn aggregation and PARP activation in SH-SYSY cells transfected with α-syn (MNNG or PAR delivery); type: cell-based; details: for MNNG-induced PARP activation / MNNG-induced α-syn aggregation: 10 μM ABT-888 or 1 μM AG-014699 1 h, then 50 μM MNNG 15 min
# [4] = tested on: α-syn; assay: In vitro fibrillization of recombinant α-syn (immunoblot, thioflavin T, TEM); type: biochemical, mouse; details: for α-syn fibrillization with other polymer or monomer: 5 nM, 36 h
# [5] = tested on: α-syn; assay: α-syn aggregation and PARP activation in primary cortical neurons transduced with AAV-α-syn (NMDA or PAR delivery); type: cell-based, mouse; details: for NMDA-induced PARP activation / NMDA-induced α-syn aggregation: 10 μM ABT-888 or 1 μM AG-014699 1 h, then 500 μM NMDA 5 min
# [6] = biological target: T1, PARP (Mus musculus, UniProt P11103); assay: α-syn PFF-induced PARP activation (PAR accumulation) in primary cortical neurons, western blot; type: cell-based; details: inhibitor pre-incubated 1 h (ABT-888 10 μM, AG-014699 1 μM, BMN 673 10 μM), then α-syn PFF
# T1 construct: Primary cortical neurons from WT or PARP1 KO embryos were prepared; endogenous in cells; host or cells: primary mouse cortical neurons (embryonic day 16)
# Protocol: After homogenization, samples were rotated at 4° C. for 30 min for complete lysis, the homogenate was centrifuged at 15,000 g for 20 min and the supernatants were used for further analysis. Protein levels were quantified using the BCA assay (Pierce, Rockford, Ill., USA), samples were separated using SDS-polyacrylamide gels and transferred onto nitrocellulose membranes. The membranes were blocked with 5% non-fat milk in TBS-T (Tris-buffered saline with 0.1% TWEEN-20® (Polysorbate 20)) for 1 h, probed using primary antibodies (Table 3) and incubated with appropriate HRP-conjugated secondary antibodies. The bands were visualized by ECL substrate.
# Primary cortical neurons from WT or PARP1 KO embryos were prepared. Briefly, the primary cortical neurons were cultured at embryonic day 16 in neurobasal media supplemented with B-27, 0.5 mM L-glutamine, penicillin and streptomycin (Invitrogen, Grand Island, NY). The neurons were replaced to fresh medium every 3-4 days. […] Primary neurons were infected with AAV2-control sgRNA or AAV2-PARP1 sgRNA (ViGene Bioscineces, Rockville, MD, USA), and AAV-α-syn WT or AAV-α-syn A53T at DIV 4-5.
# [7] = WT cultures, 500 μM NMDA 5 min, 6 h after
# T1 sequence (P11103 whole entry): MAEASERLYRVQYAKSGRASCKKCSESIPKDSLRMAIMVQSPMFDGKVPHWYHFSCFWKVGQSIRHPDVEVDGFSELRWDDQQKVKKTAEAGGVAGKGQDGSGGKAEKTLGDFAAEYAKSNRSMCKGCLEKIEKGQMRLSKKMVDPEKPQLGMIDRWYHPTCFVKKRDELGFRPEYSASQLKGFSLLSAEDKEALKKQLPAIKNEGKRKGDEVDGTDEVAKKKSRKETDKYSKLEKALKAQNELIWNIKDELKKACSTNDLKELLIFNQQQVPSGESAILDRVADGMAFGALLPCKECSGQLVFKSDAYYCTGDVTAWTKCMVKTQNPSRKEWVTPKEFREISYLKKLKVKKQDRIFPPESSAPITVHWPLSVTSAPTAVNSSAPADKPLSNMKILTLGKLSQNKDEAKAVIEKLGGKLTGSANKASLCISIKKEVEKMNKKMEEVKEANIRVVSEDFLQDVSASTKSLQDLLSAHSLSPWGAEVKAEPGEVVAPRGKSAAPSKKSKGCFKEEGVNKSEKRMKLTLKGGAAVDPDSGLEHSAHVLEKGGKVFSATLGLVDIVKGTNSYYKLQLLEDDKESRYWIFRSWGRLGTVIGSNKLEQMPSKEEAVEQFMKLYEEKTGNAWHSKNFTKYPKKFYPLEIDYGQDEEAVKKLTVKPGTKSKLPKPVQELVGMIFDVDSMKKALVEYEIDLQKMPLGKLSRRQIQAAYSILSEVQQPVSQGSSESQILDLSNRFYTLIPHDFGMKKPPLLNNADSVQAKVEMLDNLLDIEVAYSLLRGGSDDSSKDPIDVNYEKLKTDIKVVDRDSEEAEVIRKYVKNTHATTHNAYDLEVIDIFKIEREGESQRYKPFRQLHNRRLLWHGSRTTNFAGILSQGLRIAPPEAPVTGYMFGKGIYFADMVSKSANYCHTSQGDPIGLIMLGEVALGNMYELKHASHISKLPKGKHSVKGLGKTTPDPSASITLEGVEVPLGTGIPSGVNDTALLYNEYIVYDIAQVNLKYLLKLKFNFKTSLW
compound,measurement,setting,value
CN1C(=O)C(Cc2c[nH]c3ccccc23)NC1=S (centres unmarked) [Necrostatin-1],"α-syn PFF toxicity (cell death, FIGS. 47 and 48)",[1],had no effect
Poly(ADP-ribose) [PAR],"DA concentration in the contralateral striatum, HPLC","[2]; 1, 3 and 6 months",no significant difference of DA concentration
same,DA neuron number after PAR injection by itself,"[2]; 1, 3 and 6 months",has no effect on DA neuron number
same,pole test,[2]; 3 months,no significant deficits
same,neuronal cell death by PAR itself,"[1]; 20 nM, 14 days",does not cause significant cell death
same,aggregation of α-syn after exogenous PAR,[3]; SH-SYSY WT and SH-SYSY PARP-1 KO cultures,increased the aggregation of α-syn
same,earliest time different molecular weight forms of α-syn observed,"[4]; 5 nM PAR, 37° C.",24 h
same,"fibrillization of α-syn, immunoblot","[4]; 5 nM PAR, 37° C., agitated",markedly accelerated
same,effect of temperature on α-syn fibrillization,"[4]; 5 nM PAR, indicated temperatures, 72 h",causes the fibrillization of α-syn at temperatures that are not permissive for α-syn fibrillization in the absence of PAR
same,PAR concentration of peak α-syn aggregation,[4]; 36 hours,5 nM
same,α-syn fibrillization at 1 nM PAR,[4]; 36 hours,capable of enhancing α-syn fibrillization
same,α-syn fibrillization at 20 nM PAR,[4]; 36 hours,does not appreciably increase α-syn fibrillization
same,"α-syn fibrils, TEM","[4]; in the presence of PAR, 37° C.",extensively fibrillated at 12 hours
same,"thioflavin T fluorescence, PAR alone",[4]; without α-syn,has no effect on thioflavin T fluorescence
same,"fibrillization of α-syn, thioflavin T fluorescence",[4]; α-syn with PAR,accelerates the fibrillization of α-syn
same,aggregation of α-syn after exogenous PAR via Bioporter,[5]; WT and PARP-1 KO cultures transduced with AAV-α-syn,increases the aggregation of α-syn
COC(=O)C[C@H](NC(=O)[C@H](C)NC(=O)[C@@H](NC(=O)OCc1ccccc1)C(C)C)C(=O)CF [Z-VAD-FMK] (Cbz-Val-Ala-Asp(OMe)-CH2F),"α-syn PFF toxicity (cell death, FIGS. 47 and 48)",[1],partially reduces α-syn PFF toxicity
same,"α-syn PFF toxicity (cell death, FIGS. 47 and 48)",[1]; listed as ZVAD,modest neuroprotection
"CN[C@H](CC(=O)O)C(=O)O [NMDA, N-methyl-D-aspartate]","activation of PARP, PAR immunoblot",[5]; [7],leads to activation of PARP
same,aggregation of α-syn after NMDA,[5]; [7],concomitant aggregation of α-syn
Cn1cnc(N)c2ncnc1-2 [3-Methyladenine],"α-syn PFF toxicity (cell death, FIGS. 47 and 48)",[1],had no effect
"CNCc1ccc(-c2[nH]c3cc(F)cc4c3c2CCNC4=O)cc1 [AG-014699, Rucaparib]",α-syn PFF-mediated PARP activation,[6],prevents
same,α-syn PFF-mediated cell death (PI staining),[1],prevents
same,MNNG-induced PARP activation,[3],prevent
same,MNNG-induced α-syn aggregation,[3],prevent
same,NMDA-induced PARP activation,[5],prevent
same,NMDA-induced α-syn aggregation,[5],prevent
"C[C@]1(c2nc3c(C(N)=O)cccc3[nH]2)CCCN1 [ABT-888, veliparib]",α-syn PFF-mediated PARP activation,[6],prevents
same,α-syn PFF-mediated cell death (PI staining),[1],prevents
same,"α-syn PFF toxicity (cell death, FIGS. 47 and 48)",[1],prevents α-syn PFF toxicity
same,MNNG-induced PARP activation,[3],prevent
same,MNNG-induced α-syn aggregation,[3],prevent
same,NMDA-induced PARP activation,[5],prevent
same,NMDA-induced α-syn aggregation,[5],prevent
"Cn1ncnc1[C@H]1c2n[nH]c(=O)c3cc(F)cc(c23)N[C@@H]1c1ccc(F)cc1 [BMN 673, Talazoparib]",α-syn PFF-mediated PARP activation,[6],prevents
same,α-syn PFF-mediated cell death (PI staining),[1],prevents
PolyA,α-syn fibrillization with other polymer or monomer,[4]; 37° C.,had no effects on α-syn fibrillization
"Nc1ncnc2c1ncn2[C@@H]1O[C@H](COP(=O)(O)OP(=O)(O)OC[C@H]2OC(O)[C@H](O)[C@@H]2O)[C@@H](O)[C@H]1O (some centres unmarked) [ADP ribose monomer, ADP ribose]",α-syn fibrillization with other polymer or monomer,[4]; 37° C.,had no effect on α-syn fibrillization
